In patent publication US7691842B2, “Tricyclic 6-alkylidene-penems as β-lactamase inhibitors” (Wyeth LLC, priority 2002, dated 2010):
Like-named read-outs stand apart in the source and are kept apart here.

What was measured:
[1] = target: class A β-lactamase TEM-1 (Escherichia coli, UniProt P62593); test: β-Lactamase inhibition, IC50 determination (nitrocefin, spectrophotometric); type: biochemical, E. Coli
Method in brief: (§1)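 Purified enzymes TEM-1 (4.3 nM), Imi-1 (7.1 nM), CcrA (1.2 nM) and AmpC (2.1 nM) were preincubated with inhibitor 10 min at 25 °C in 50 mM PO4, pH 7.0. Nitrocefin (50 μg/ml) hydrolysis rates at 495 nm over 5 min gave % inhibition versus control; IC50 determined graphically.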

[2] = target: class A β-lactamase Imi-1 (Enterobacter cloacae, UniProt Q46991); test: as above; type: biochemical
class B enzyme CcrA = class B enzyme CcrA (Bacteroides fragilis, UniProt P25910); test: as above; type: biochemical; details: enzyme 1.2 nM; 10 min preincubation at 25° C.; nitrocefin 50 μg/ml; 50 mM PO4, pH 7.0; read-out: IC50 (nM) Class B Ccr
Method in brief: as §1

class C enzyme AmpC = class C enzyme AmpC (Enterobacter cloacae, UniProt P05364); test: biochemical; design: species or system Enterobacter cloaca
Method in brief: as §1

[3] = test system: class-A producing pathogens; details: background statement; cited from earlier work
[4] = test system: class C producing organisms; details: background statement; cited from earlier work
E. Cloacae GC1477 (Ampc) = test: Antimicrobial susceptibility testing, microbroth dilution MIC of piperacillin + inhibitor; type: cell-based; details: piperacillin combined with constant 4 μg/ml inhibitor; Inc: 35° C. for 18 hours
Method in brief: (§2)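 Broth microdilution in Mueller-Hinton II broth per NCCLS M7-A5: two-fold serial dilutions of piperacillin with β-lactamase inhibitor held constant at 4 μg/ml (final). Inoculum 10^5 CFU/ml; plates incubated 18-22 h at 35° C in ambient air.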

E. Coli GC2203 = test: as above; type: cell-based; details: piperacillin combined with constant 4 μg/ml inhibitor; Inc: 35° C. for 18 hours
Method in brief: as §2

E. Coli GC2844 = test: as above; type: cell-based; details: piperacillin combined with constant 4 μg/ml inhibitor; Inc: 35° C. for 18 hours
Method in brief: as §2

E. Coli GC2847 (TEM-1) = test: as above; type: cell-based; details: piperacillin combined with constant 4 μg/ml inhibitor; Inc: 35° C. for 18 hours
Method in brief: as §2

E. Coli GC2894 (Ampc) = test: as above; type: cell-based; details: piperacillin combined with constant 4 μg/ml inhibitor; Inc: 35° C. for 18 hours
Method in brief: as §2

E. Coli GC2920 (IRT-2) = test: as above; type: cell-based; details: piperacillin combined with constant 4 μg/ml inhibitor; Inc: 35° C. for 18 hours
Method in brief: as §2

[5] = test system: P. aeruginos GC1764 (Ampc); test: as above; type: cell-based; details: piperacillin combined with constant 4 μg/ml inhibitor; Inc: 35° C. for 18 hours
Method in brief: as §2

[6] = test system: S. Marcescens GC1781 Sme-1 + Ampc; test: as above; type: cell-based; details: piperacillin combined with constant 4 μg/ml inhibitor; Inc: 35° C. for 18 hours
Method in brief: as §2

S. aureus GC2216 = test: as above; type: cell-based; details: piperacillin combined with constant 4 μg/ml inhibitor; Inc: 35° C. for 18 hours
Method in brief: as §2

[7] = test system: Clinical isolates that have been adapted to cause infection in mice; test: In vivo antibacterial protection (7 day survival of infected mice, ED50); design: species or system mice strain CD-1; details: Ratio of Piperacillin Inhibitor not given
Text: In Vivo Antibacterial Protection
Female mice strain CD-1, approximately 18-22 grams, were received from Charles River Laboratories and quarantined 7 days prior to use. In addition, mice may be rendered neutropenic using cytoxan for particular studies.
Clinical isolates that have been adapted to cause infection in mice, are used in the experiment, including infections with strains of E. coli, K. pneumoniae, M. morganii, E. cloacae, S. marcescens, C. freundii, staphylococci, streptococci, P. aeruginosa and N. gonorrhoeae.
Mice are challenged by injecting 0.5 ml intraperitoneally or 0.05 ml intranasally of a predetermined bacterial inoculum suspended in broth, saline or hog gastric mucin (supplemented with dried bovine hemoglobin for N. gonorrhoeae). […] Antibacterial doses (dose concentration prepared by two fold serial dilutions of the antibiotic) are dissolved or suspended in 0.2% aqueous agar or methocel, phosphate buffered saline or an adjuvant are administered orally, subcutaneously or intravenously in the following manner: • a) Orally or subcutaneously: Dose volume of 0.5 ml administered ½ hr after infection. A second dose may be administered 3 hr. after infection for treatment of infections with more virulent organisms. • b) Intravenously: Dose volume of 0.2 ml, administered ½ hr. after infection. For the treatment of infections with more virulent organisms, more doses, up to 48 hr may be administered. (Intravenous dosing will not exceed 3 doses/24 hr period.) • c) Oral pretreatment: Under special circumstances, the pH of the stomach needs to be adjusted in order to increase the gastric stability of the antibiotic. For this purpose, 0.5 ml of phosphate buffered saline (pH7.8, 0.06M) (or specific approved adjuvant) is administered orally ½ hr after infection, followed 5 minutes later by 0.5 ml of antibiotic (also orally) contained in phosphate buffered saline (pH7.8, 0.06M). Animal Species
A detailed explanation as to the number of animals needed for the determination of in vivo efficacy follows: • A) Novel antibiotics are tested at 5 different dose levels with 5 mice per dose level at each of three routes of administration (oral, subcutaneous and intravenous). […] This would require 25 mice/route with 3 routes/antibiotic or 75 mice per novel compound tested. One to two novel antibiotics will be tested per experiment (75-150 mice) • B) The effectiveness of the new compound must be compared to that of a standard, or antibiotic of known effectiveness. Known or previously tested antibiotics are tested at 5 dose levels with 5 mice per dose level by a single route of administration, for a total of 25 mice/antibiotic. Usually 3-6 antibiotics will be tested per experiment. (75-150 mice). • C) Untreated controls—In each of the above tests, untreated animals are infected with 3 different concentrations of bacterial inoculum with 10 mice per concentration (30 mice total in each and every test). These untreated controls are used to determine and maintain the infection level between 10-100 LD50s as required for test to test comparison and validity. Determination of Protective Effects of Antibacterial Agents:
The protective effects of the antibacterial agent(s) are measured by the survival of the infected untreated as compared to the treated animals. For this determination, animals are observed for 7 days after treatment. A census of survivors is taken twice daily and at that time dead as well as moribund animals are removed. The 7 day survival ratio from three separate tests are pooled for estimation of median effective dose (ED50) by computerized program for probit analysis (Cleeland, R. and E. Squires. 1991. Evaluation of New Antimicrobials in Vitro and in Experimental Animal Infections. In Antibiotics in Laboratory Medicine”, 3rd. ed., edited by Victor Lorian. Willams and Wilkins Baltimore, Md. pp. 752-783). […]

class A β-lactamase TEM-1, sequence (P62593 24-286 limits assumed): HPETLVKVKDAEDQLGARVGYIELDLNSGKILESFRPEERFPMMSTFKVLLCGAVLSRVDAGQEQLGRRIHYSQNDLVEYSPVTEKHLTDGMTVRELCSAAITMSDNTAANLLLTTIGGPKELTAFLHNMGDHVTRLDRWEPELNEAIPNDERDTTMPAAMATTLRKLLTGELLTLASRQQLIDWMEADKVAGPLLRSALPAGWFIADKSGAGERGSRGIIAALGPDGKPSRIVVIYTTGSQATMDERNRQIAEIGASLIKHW
class A β-lactamase Imi-1, sequence (Q46991 entry or part of it): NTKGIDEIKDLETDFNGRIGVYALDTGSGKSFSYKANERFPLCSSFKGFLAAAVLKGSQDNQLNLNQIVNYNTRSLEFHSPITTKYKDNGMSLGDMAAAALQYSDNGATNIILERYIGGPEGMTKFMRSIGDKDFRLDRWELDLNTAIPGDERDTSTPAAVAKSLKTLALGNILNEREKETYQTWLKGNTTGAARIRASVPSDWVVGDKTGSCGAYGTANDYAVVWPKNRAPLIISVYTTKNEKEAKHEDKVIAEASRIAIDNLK
class B enzyme CcrA, sequence (P25910 19-249): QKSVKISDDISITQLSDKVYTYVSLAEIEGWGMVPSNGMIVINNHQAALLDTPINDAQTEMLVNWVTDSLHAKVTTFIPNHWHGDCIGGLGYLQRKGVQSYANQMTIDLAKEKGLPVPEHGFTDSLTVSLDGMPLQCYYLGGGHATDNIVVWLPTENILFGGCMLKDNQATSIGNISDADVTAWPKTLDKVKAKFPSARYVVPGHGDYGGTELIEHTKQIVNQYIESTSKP
class C enzyme AmpC, sequence (P05364 21-381): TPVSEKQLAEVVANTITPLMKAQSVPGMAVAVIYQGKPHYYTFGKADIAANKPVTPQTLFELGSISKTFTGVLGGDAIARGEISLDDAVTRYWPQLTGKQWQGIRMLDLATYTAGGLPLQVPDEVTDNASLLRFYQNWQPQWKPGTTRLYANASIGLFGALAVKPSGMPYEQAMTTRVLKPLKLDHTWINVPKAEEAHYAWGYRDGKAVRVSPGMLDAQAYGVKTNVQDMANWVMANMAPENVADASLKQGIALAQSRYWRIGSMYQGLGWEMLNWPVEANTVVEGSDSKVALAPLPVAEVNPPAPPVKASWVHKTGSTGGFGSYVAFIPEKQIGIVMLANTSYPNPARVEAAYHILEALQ

| SMILES | IC50 [1] [nM] | IC50 [2] [nM] | IC50 (class B enzyme CcrA) [nM] | IC50 (class C enzyme AmpC) [nM] | melting point | also measured |
| --- | --- | --- | --- | --- | --- | --- |
| O=C([O-])C1=CS[C@@H]2/C(=C\c3cn4c5c(c(OCCOCc6ccccc6)nc4n3)CCC5)C(=O)N12.[Na+] [Example 27, (5R,6Z)-6-(5-[2-(benzyloxy)ethoxy]-7,8-dihydro-6H-cyclopenta[e]imidazo[1,2-a]pyrimidin-2-ylmethylene)-7-oxo-4-thia-1-azabicyclo[3.2.0]hept-2-ene-2-carboxylic acid, sodium salt] | 12 | 33 | 180 | 3 | > 250 °C |  |
| O=C([O-])C1=CS[C@@H]2/C(=C\c3ccc4nc5n(c4c3)CCCS5)C(=O)N12.[Na+] [Example 29, (5R,6Z)-6-(3,4-dihydro-2H-[1,3]thiazino[3,2-a]benzimidazol-7-ylmethylene)-7-oxo-4-thia-1-azabicyclo[3.2.0]hept-2-ene-2-carboxylic acid, sodium salt] | 15 | 300 | 240 | 18 | > 250 °C |  |
| O=C([O-])C1=CS[C@@H]2/C(=C\c3nc4ncc5c(n4n3)CCC3(C5)OCCO3)C(=O)N12.[Na+] [Example 24, (5R,6Z)-6-(8′,9′-dihydro-6′H-spiro[1,3-dioxolane-2,7′-[1,2,4]triazolo[1,5-a]quinazolin]-2′-ylmethylene)-7-oxo-4-thia-1-azabicyclo[3.2.0]hept-2-ene-2-carboxylic acid, sodium salt] |  |  |  |  | > 250 °C (dec.) |  |
| CC1(C)[C@H](C(=O)O)N2C(=O)C[C@H]2S1(=O)=O [sulbactam] |  |  |  |  |  | effectiveness against class-A producing pathogens [3]: effective; effectiveness against class C producing organisms [4]: ineffective |
| O=C([O-])C1=CS[C@@H]2/C(=C\c3ccc4nc5sccn5c4c3)C(=O)N12.[Na+] [Example 30, (5R,6Z)-7-oxo-6-([1,3]thiazolo[3,2-a]benzimidazol-6-ylmethylene)-4-thia-1-azabicyclo[3.2.0]hept-2-ene-2-carboxylic acid, sodium salt] | 46 | 200 | 97 | 9.3 | > 250 °C |  |
| O=C([O-])C1=CS[C@@H]2/C(=C\c3ccc4nc5n(c4c3)CCS5)C(=O)N12.[Na+] [Example 28, (5R,6Z)-6-(2,3-dihydro[1,3]thiazolo[3,2-a]benzimidazol-6-ylmethylene)-7-oxo-4-thia-1-azabicyclo[3.2.0]hept-2-ene-2-carboxylic acid, sodium salt] | 3.2 | 90 | 110 | 5.7 | > 250 °C |  |
| O=C(O)C1=CS[C@@H]2/C(=C\c3cn4c5c(sc4n3)CCCC5)C(=O)N12 [Example 19, (5R),(6Z)-7-oxo-6-(5,6,7,8-tetrahydroimidazo[2,1-b][1,3]benzothiazol-2-ylmethylene)-4-thia-1-azabicyclo[3.2.0]hept-2-ene-2-carboxylic acid] |  |  | 215 |  |  | IC50 ([1]; enzyme 4.3 nM, 10 min preincubation at 25° C., nitrocefin 50 μg/ml, 50 mM PO4, pH 7.0, read-out: IC50 (nM) Class A TEM-1): 1.9 nM; IC50 ([2]; enzyme 7.1 nM, 10 min preincubation at 25° C., nitrocefin 50 μg/ml, 50 mM PO4, pH 7.0, read-out: IC50 (nM) Class A Imi): 33 nM; IC50 (class C enzyme AmpC; enzyme 2.1 nM, 10 min preincubation at 25° C., nitrocefin 50 μg/ml, 50 mM PO4, pH 7.0, read-out: IC50 (nM) Class C AmpC): 0.62 nM; Minimal Inhibitory Concentration E. Cloacae GC1477 (Ampc) (E. Cloacae GC1477 (Ampc)): 32 µg/mL; Minimal Inhibitory Concentration E. Coli GC2203 (E. Coli GC2203): 2 µg/mL; Minimal Inhibitory Concentration E. Coli GC2844 (E. Coli GC2844): 2 µg/mL; Minimal Inhibitory Concentration E. Coli GC2847 (TEM-1) (E. Coli GC2847 (TEM-1)): 8 µg/mL; Minimal Inhibitory Concentration E. Coli GC2894 (Ampc) (E. Coli GC2894 (Ampc)): 4 µg/mL; Minimal Inhibitory Concentration E. Coli GC2920 (IRT-2) (E. Coli GC2920 (IRT-2)): 2 µg/mL; Minimal Inhibitory Concentration P. aeruginos GC1764 (Ampc) [5]: 1 µg/mL; Minimal Inhibitory Concentration S. Marcescens GC1781 Sme-1 + Ampc [6]: 8 µg/mL; Minimal Inhibitory Concentration S. aureus GC2216 (S. aureus GC2216): .06 µg/mL; ED50 [7]: 63 mg/kg |
| Cc1nc2nc(/C=C3/C(=O)N4C(C(=O)[O-])=CS[C@H]34)nn2c2c1CCC2.[Na+] [Example 22, (5R,6Z)-6-[(5-methyl-7,8-dihydro-6H-cyclopenta[e][1,2,4]triazolo[1,5-a]pyrimidin-2-yl)methylene]-7-oxo-4-thia-1-azabicyclo[3.2.0]hept-2-ene-2-carboxylic acid, sodium salt] |  |  |  |  | 250 °C (dec.) |  |
| C[C@]1(Cn2ccnn2)[C@H](C(=O)O)N2C(=O)C[C@H]2S1(=O)=O [tazobactam] |  |  |  |  |  | effectiveness against class-A producing pathogens [3]: effective; effectiveness against class C producing organisms [4]: ineffective |
| O=C(O)[C@H]1/C(=C/CO)O[C@@H]2CC(=O)N21 [clavulanic acid] |  |  |  |  |  | effectiveness against class-A producing pathogens [3]: effective; effectiveness against class C producing organisms [4]: ineffective |
| Cc1nc2nc(/C=C3/C(=O)N4C(C(=O)[O-])=CS[C@H]34)nn2c2c1CCCC2.[Na+] [Example 25, (5R,6Z)-6-[(5-methyl-6,7,8,9-tetrahydro[1,2,4]triazolo[1,5-a]quinazolin-2-yl)methylene]-7-oxo-4-thia-1-azabicyclo[3.2.0]hept-2-ene-2-carboxylic acid, sodium salt] |  |  |  |  | 250 °C (dec.) |  |
